# Measurements from patent US20230047788A1, “COMPOSITIONS COMPRISING 5-CHOLESTEN-3, 25-DIOL, 3-SULFATE (25HC3S) OR PHARMACEUTICALLY ACCEPTABLE SALT THEREOF AND AT LEAST ONE CYCLIC OLIGOSACCHARIDE” (Virginia Commonwealth University, priority 2016, published 2023).
# “And” between values parts separate entries of the source, which are not always exact repeats. Equal values may be shown once.
# Legend:
# [1] = assay type: in vivo, Beagle dogs
# Experimental: The objectives of this study were to evaluate the potential toxicity of 25HC3S when administered once daily by subcutaneous injection to Beagle dogs for 14 consecutive days. 25HC3S sodium salt in the vehicle (250 mg/mL hydroxypropyl-beta-cyclodextrin with 10 mM sodium phosphate buffer [approximate pH 7.6] in sterile water for irrigation) was administered via subcutaneous injection in the dorsoscapular area once daily for 14 consecutive days to 3 groups (Groups 2-4) of Beagle dogs. Dosage levels were 3, 10, and 30 mg/kg/day for Groups 2, 3, and 4, respectively. […] The dose volume was 1, 0.1, 0.33, and 1 mL/kg for Groups 1, 2, 3, and 4, respectively. Each group consisted of 4 males and 4 females. The animals were observed twice daily for mortality and moribundity. Clinical examinations (including injection site observations) were performed once daily for at least 6 days, including the day of randomization, prior to randomization, prior to dose administration, immediately following dose administration, and at approximately 2 hours following dose administration. Blood samples for toxicokinetic evaluation were collected from all animals prior to dosing (study day 0 only) and at 0.5, 1, 2, 4, 8, and 24 hours after dosing on study days 0 and 13.
# mice overdosed with APAP = experiment: Mortality in mice overdosed with APAP (600 mg/kg); assay type: in vivo, C57BL/6J mice; conditions: APAP 600 mg/kg ip; 25 mg/kg 25HC3S iv 0.5 hours after APAP; 5 days after overdose
# Experimental: The ability of 25HC3S to treat symptoms of APAP overdose was examined. 12-week-old male C57BL/6J mice were fasted overnight and injected (intraperitoneally) with APAP: 600 mg/kg (high dose) for mortality studies or 350 mg/kg (low dose) for liver function and gene studies. Control mice received only vehicle (20% (v/v) a propylene glycol, 4% (w/v) cyclodextrin (powdered hydroxypropyl beta cyclodextrin in sterile 10% (w/v) glucose.
# A composition comprising 25 mg/kg of 25HC3S sodium salt in vehicle was administered intravenously to the experimental mice 0.5 hours after APAP administration. Mortality was monitored in the high dose mice. In the low dose mice, the liver function markers aspartate aminotransferase (AST), alanine aminotransferase (ALT), alkaline phosphatase (ALK) and lactate dehydrogenase (LDH), were measured in serum. Impacts on gene expression were determined by Quantitative Real-time PCR. Membrane potentials were measured using JC1 staining and flow cytometry.
# [2] = Solubility of 25HC3S in 10 mM sodium phosphate buffer pH 7.6 with HPbCD at 5, 15 and 25°C; assay type: physicochemical
# Experimental: A total of five suspensions of 25HC3S were prepared in 10 mM sodium phosphate buffer at pH 7.6 containing 0, 50, 100, 250 and 400 mg/mL HPbCD. The suspensions were initially sonicated and then stirred. Each suspension (40 mL for the suspension without HPbCD and 20 mL for the remaining suspensions) was then equally divided into 3 vials and stored in 5° C., 15° C. and 25° C./60% relative humidity (RH) stability chambers.
# Each suspension was stirred constantly in the stability chambers by a small spin bar and electronic stirrer. At day 1 and day 3, half of each suspension (approximately 6 mL for the sample without HPbCD and 3 mL for the rest of the suspensions with HPbCD) was withdrawn from the vial with a 3 or 5 mL disposable syringe. A syringe filter was then attached to the syringe for filtration of the suspensions. To minimize sample temperature changes during filtration, the syringe and filter were equilibrated at the respective stability chamber temperatures before their use. Approximately 3 mL of the filtrate for the sample without HPbCD and 1 mL of the filtrate for the remaining suspensions in HPbCD were discarded to ensure that the filter membrane was sufficiently saturated with 25HC3S to prevent absorption of the drug from the remaining filtrate. Then approximately 0.5 mL to 1.5 mL of filtrate was collected for HPLC analysis. At day 3, the remaining filtered portions were measured for pH. Reverse phase HPLC was used for measuring the concentration of 25HC3S in the solubility samples.
# [3] = Solubility of 25HC3S in water as function of HPbCD or SBECD concentration at room temperature; assay type: physicochemical; conditions: for 25HC3S Solubility / Molar of 25HC3S: room temperature
# Experimental: A total of six suspensions of 25HC3S sodium salt were prepared in water containing 0, 50, 100, 200, 250 and 400 mg/mL hydroxypropyl-β-cyclodextrin (HPbCD, hydroxypropyl betadex) or sulfobutyl ether β-cyclodextrin (SBECD, Captisol®). Both cyclodextrins are used in approved pharmaceutical products and are manufactured as Good Manufacturing Practice (GMP) excipients. Each suspension was agitated at room temperature, aliquots were centrifuged, and the supernatant solutions assayed for 25HC3S concentrations by a reverse phase HPLC method. The solubility data of 25HC3S as a function of HPbCD concentrations is in Table 1 and as a function of SBECD concentrations is in Table 2.
# [4] = Compatibility of 25HC3S for Injection with container closure system; assay type: physicochemical; conditions: 10 mL glass vial, FluroTec coated stopper; up to 12 months 2-8°C, 6 months 25°C/60% RH and 40°C/75% RH, inverted
# Experimental: 25HC3S for Injection is a sterile powder, for injection solution. The 25HC3S stability with the 10 mL glass vial and FluroTec® coated stopper was studied up to 12 months at 2-8° C., 6 months at 25° C./60% RH, and 6 months at 40° C./75% RH with vials stored in the inverted orientation.
smiles,measurement,setting,value
"C[C@H](CCCC(C)(C)O)[C@H]1CC[C@H]2[C@@H]3CC=C4C[C@@H](OS(=O)(=O)[O-])CC[C@]4(C)[C@H]3CC[C@]12C.[Na+] [25HC3S, 5-cholesten-3, 25-diol, 3-sulfate]",survival to the scheduled necropsy,"[1]; Beagle dogs, sc 3, 10, 30 mg/kg/day, 14 days",All animals survived
same,injection site changes,"[1]; dog, in vivo, sc",no injection site changes appeared directly attributable
same,mean AUClast,"[1]; dog, in vivo, sc, 30 mg/kg/day","19,877 ng*hr/mL"
same,mean C.,"[1]; dog, in vivo, sc, 30 mg/kg/day","7,753 ng/mL"
same,mice that had died,mice overdosed with APAP,one
same,pH of Filtrate Day 3,"[2]; 5°C, HPbCD 0 mg/mL",7.62
same,pH of Filtrate Day 3,"[2]; 5°C, HPbCD 50 mg/mL",7.70
same,Solubility at Day 3,"[2]; 5°C, HPbCD 50 mg/mL, phosphate buffer pH 7.6",9.32 mg/mL
same,pH of Filtrate Day 3,"[2]; 5°C, HPbCD 100 mg/mL",7.80
same,Solubility at Day 3,"[2]; 5°C, HPbCD 100 mg/mL, phosphate buffer pH 7.6",18.31 mg/mL
same,pH of Filtrate Day 3,"[2]; 5°C, HPbCD 250 mg/mL",8.06
same,Solubility at Day 3,"[2]; 5°C, HPbCD 250 mg/mL, phosphate buffer pH 7.6",42.80 mg/mL
same,pH of Filtrate Day 3,"[2]; 5°C, HPbCD 400 mg/mL",8.42
same,Solubility at Day 3,"[2]; 5°C, HPbCD 400 mg/mL, phosphate buffer pH 7.6",66.89 mg/mL
same,pH of Filtrate Day 3,"[2]; 15°C, HPbCD 0 mg/mL",7.59
same,pH of Filtrate Day 3,"[2]; 15°C, HPbCD 50 mg/mL",7.77
same,Solubility at Day 3,"[2]; 15°C, HPbCD 50 mg/mL, phosphate buffer pH 7.6",9.50 mg/mL
same,pH of Filtrate Day 3,"[2]; 15°C, HPbCD 100 mg/mL",7.98
same,Solubility at Day 3,"[2]; 15°C, HPbCD 100 mg/mL, phosphate buffer pH 7.6",18.51 mg/mL
same,pH of Filtrate Day 3,"[2]; 15°C, HPbCD 250 mg/mL",8.07
same,Solubility at Day 3,"[2]; 15°C, HPbCD 250 mg/mL, phosphate buffer pH 7.6",43.79 mg/mL
same,pH of Filtrate Day 3,"[2]; 15°C, HPbCD 400 mg/mL",8.26
same,Solubility at Day 3,"[2]; 15°C, HPbCD 400 mg/mL, phosphate buffer pH 7.6",68.10 mg/mL
same,Solubility at Day 3,"[2]; 25°C/60% RH, HPbCD 0 mg/mL, phosphate buffer pH 7.6, centrifuged sample",0.006^1 mg/mL
same,pH of Filtrate Day 3,"[2]; 25°C/60% RH, HPbCD 50 mg/mL",7.65
same,Solubility at Day 3,"[2]; 25°C/60% RH, HPbCD 50 mg/mL, phosphate buffer pH 7.6",9.90 mg/mL
same,Solubility at Day 3,"[2]; 25°C/60% RH, HPbCD 100 mg/mL, phosphate buffer pH 7.6",18.33 mg/mL
same,pH of Filtrate Day 3,"[2]; 25°C/60% RH, HPbCD 100 mg/mL, supernatant",7.672
same,Solubility at Day 3,"[2]; 25°C/60% RH, HPbCD 250 mg/mL, phosphate buffer pH 7.6",42.37 mg/mL
same,Solubility at Day 3,"[2]; 25°C/60% RH, HPbCD 400 mg/mL, phosphate buffer pH 7.6",70.80 mg/mL
same,pH of Filtrate Day 3,"[2]; 25°C/60% RH, HPbCD 400 mg/mL, supernatant",8.342
same,temperature dependence of solubility in the presence of HPbCD,[2]; between 5°C and 25°C,not temperature dependent
same,25HC3S Solubility,[3]; 50 mg/mL HPbCD in water,9.78 mg/mL
same,Molar of 25HC3S,[3]; 50 mg/mL HPbCD in water,0.01938 Molar
same,25HC3S Solubility,[3]; 50 mg/mL SBECD in water,6.03 mg/mL
same,Molar of 25HC3S,[3]; 50 mg/mL SBECD in water,0.01195 Molar
same,25HC3S Solubility,[3]; 100 mg/mL HPbCD in water,18.44 mg/mL
same,Molar of 25HC3S,[3]; 100 mg/mL HPbCD in water,0.03654 Molar
same,25HC3S Solubility,[3]; 100 mg/mL SBECD in water,9.86 mg/mL
same,Molar of 25HC3S,[3]; 100 mg/mL SBECD in water,0.01954 Molar
same,25HC3S Solubility,[3]; 200 mg/mL HPbCD in water,31.97 mg/mL
same,Molar of 25HC3S,[3]; 200 mg/mL HPbCD in water,0.06334 Molar
same,25HC3S Solubility,[3]; 200 mg/mL SBECD in water,21.24 mg/mL
same,Molar of 25HC3S,[3]; 200 mg/mL SBECD in water,0.04208 Molar
same,25HC3S Solubility,[3]; 250 mg/mL HPbCD in water,42.37 mg/mL
same,Molar of 25HC3S,[3]; 250 mg/mL HPbCD in water,0.08395 Molar
same,25HC3S Solubility,[3]; 400 mg/mL HPbCD in water,66 mg/mL and 65.18 mg/mL
same,Molar of 25HC3S,[3]; 400 mg/mL HPbCD in water,0.1291 Molar
same,25HC3S Solubility,[3]; 400 mg/mL SBECD in water,44.76 mg/mL
same,Molar of 25HC3S,[3]; 400 mg/mL SBECD in water,0.08869 Molar
same,relative amounts of HPbCD needed to solubilize 25HC3S (ratio),"[3]; mg/mL basis, water",6 to 1
same,25HC3S Solubility,"[3]; water, 0 mg/mL cyclodextrin",0.14 mg/mL
same,Molar of 25HC3S,"[3]; water, 0 mg/mL cyclodextrin",0.00028 Molar
same,compatibility with container closure system,[4],good compatibility
